Consider 1 molecule from patent US20160326558A1, “Process for Stimulating Hyaluronic Acid Production with Ascorbic Acid Derivatives and the Composition Thereof” (CORUM INC., priority 2012, published 2016).

Where “and” joins values, the source holds several entries; their conditions need not be identical. Equal entries are not always repeated.

The assay concerns human fibroblast (Hs68). Kind of assay: Stimulating hyaluronic acid production in human fibroblast, R&D HA-ELISA (Example 4). The class given is cell-based. To be noted: for Hyaluronic Acid Content Stimulated, Average / Hyaluronic Acid Content Stimulated, single entries: 72 h, vs negative control = 100%. As to the method: Complete medium is used in cell seeding stage. The confluent Hs68 cells are rinsed with sterile D-PBS, and trypsinize all cells and perform cell counting. Then, dilute the cell density to 4E+04/mL and seed 0.5 mL cell liquid (equals to 2E+04 cells) each well in 24 well plates. Incubate Hs68 cells at 37° C., 5% CO2 for about 24 hours. Starvation medium is used in this stage. The 24-hour-cultured Hs68 cells are rinsed with sterile D-PBS and discarded rinse buffer. Controls and testing materials in different concentrations are respectively added into the Hs68 cells in 24 well plates. Then, the Hs68 cells are incubated at 37° C., with 5% CO2 for about 72 hours. After incubating for about 72 hours, transfer some supernatant of cells treating with controls and testing materials into new containers. Centrifuge the supernatants at 2000 rpm for 5˜10 minutes. The hyaluronic acid content of the centrifuged supernatants are respectively determined by Hyaluronan Enzyme-Linked Immunosorbent Assay Kit, and calculated with the following Formula 2. [formula] In this example, we try another brand HA-ELISA kit (R&D; Cat No. DHYAL0) to study the reproducibility of the stimulatory effect. Excluding replacing the HA-ELISA kit, the materials and the procedures can be referred to the above Example 2.
On the technique in general: In an ELISA, binding on a coated surface is turned into a signal by an enzyme label.

For the molecule `CCOC1=C(O)C(=O)O[C@@H]1[C@@H](O)CO` [3-O-ethyl-ascorbic acid], the “Hyaluronic Acid Content Stimulated, Average” value (1.25 ppm) turned out to be 112.6%; the “Hyaluronic Acid Content Stimulated, Average” value (2.5 ppm) was determined as 136.7%; the “Hyaluronic Acid Content Stimulated, Average” value (5 ppm) was 123.1%; the “Hyaluronic Acid Content Stimulated, Average” value (7.5 ppm) is 134.0%; the “Hyaluronic Acid Content Stimulated, Average” value (10 ppm) turned out to be 97.7%; the “Hyaluronic Acid Content Stimulated, Average” value (100 ppm) came to 121.9%. The “Hyaluronic Acid Content Stimulated, Average” value runs as follows: (1000 ppm) 133.9%; (2500 ppm) 103.6%; (5000 ppm) 91.0%; (7500 ppm) 73.1%; (10000 ppm) 40.7%. The “Hyaluronic Acid Content Stimulated, single entries” value is, setting by setting: (1.25 ppm) 102.1% and 126.8% and 102.4% and 119.0%; (2.5 ppm) 149.7% and 125.3% and 111.4% and 160.5%; (5 ppm) 110.6% and 110.9% and 103.8% and 167.0%; (10 ppm) 89.1% and 101.2% and 91.2% and 109.5%; (1000 ppm) 125.4% and 134.8% and 122.6% and 152.7%; (2500 ppm) 99.2% and 96.7% and 78.7% and 140.0%. Moreover, the “Hyaluronic Acid Content Stimulated, single entries” value (5000 ppm) is 110.0% and 70.6% and 103.2% and 80.3%; the “Hyaluronic Acid Content Stimulated, single entries” value (10000 ppm) was 50.9% and 32.1% and 37.2% and 42.4%. The “stimulated hyaluronic acid production, dose dependence (in words)” value (about 1000-10 ppm) is given as “dose-dependently”.
